Data as given in patent US20160000080A1, “COMPOSITIONS CONTAINING ISOSORBIDE MONOESTER AND ALIPHATIC VICINAL DIOLS” (CLARIANT INTERNATIONAL LTD., priority 2011, published 2016).
Like-named read-outs stand apart in the source and are kept apart here. One block for each compound: values may come before it.

What was measured:
Aspergillus brasiliensis = assay: Minimum inhibitory concentration (MIC) in agar; type: cell-based; conditions: Aspergillus brasiliensis (F)
Procedure: (§1) Below, the antimicrobial efficacy of a composition according to the invention consisting of 50% by weight of isorbide caprylate 1 and 50% by weight of ethylhexylglycerin against bacteria, fungi and yeasts is examined (hereinbelow, the composition is referred to as “composition A”). For the tests with bacteria, composition A was diluted with butyl polyglycol and then, at 50° C., added to liquid CASO agar (casein-peptone agar) buffered to pH 7 (+/−0.2) in various concentrations (hereinbelow referred to as compositions B1, B2, etc.). For the tests with fungi and yeasts, composition A was diluted with butyl polyglycol and then added to liquid Sabouraud 4% dextrose agar buffered to pH 5.6 (+/−0.2) in various concentrations (hereinbelow referred to as compositions PH1, PH2, etc.). The compositions B1, B2, etc. and PH1, PH2 etc. were each poured into Petri dishes and each inoculated with identical amounts of bacteria, fungi and yeasts. The minimum inhibitory concentration (MIC) is the concentration at which inhibition of the growth of the bacteria, fungi and yeasts in the compositions B1, B2, etc. and PH1, PH2, etc. occurs.
(§2) The minimum inhibitory concentrations for the pure substances isosorbide caprylate 1 and ethylhexylglycerin were determined analogously.
(§3) The values determined for the minimum inhibitory concentrations “MIC mixture”, stated in Table 1 below, are based on the concentrations of composition A.
(§4) The values determined for the minimum inhibitory concentrations “QA” and “QB”, stated in Table 1 below, have already been corrected for the dilution effect of the butyl polyglycol.
(§5) From the minimum inhibitory concentrations determined, it is then possible to calculate whether a synergistic effect is present or not. Whether a synergistic effect is present is calculated according to F. C. Kull et al., Applied Microbiology 1961, 9, 538 using the formula below: […]
(§6) where • Qa is the minimum inhibitory concentration of isosorbide caprylate 1 in the mixture employed, • QA is the minimum inhibitory concentration of isosorbide caprylate 1, • Qb is the minimum inhibitory concentration of ethylhexylglycerin in the mixture employed and • QB is the minimum inhibitory concentration of ethylhexylglycerin.
(§7) The values for Qa and Qb are determined from the values for the mixtures (“MIC mixture”) by multiplying the minimum inhibitory concentrations determined for Qa with the factor 0.5 and for Qb with the factor 0.5, because of the proportions of the ingredients—50% by weight of isosorbide caprylate 1 and 50% by weight of ethylhexylglycerin—in composition A according to the invention examined.
(§8) If an SE value>1 is obtained, an antagonistic effect is present. If SE=1, the compounds are neutral with respect to one another, and if SE<1, a synergistic effect is present.
(§9) Analogously to the determination of the antimicrobial activity according to the above example B), the antimicrobial activity of a mixture comprising, firstly, 89.6% by weight of isosorbide dicaprylate and 9.4% by weight of isosorbide monocaprylate (remainder: 1% by weight) (hereinbelow referred to as “isosorbide dicaprylate”) and, secondly, pure isosorbide was determined in further test series.

Aspergillus terreus = assay: Minimum inhibitory concentration (MIC) in agar; type: cell-based; conditions: Aspergillus terreus (F)
Procedure: as §1, §2, §3, §4, §5, §6, §7, §8, §9

Candida albicans = assay: Minimum inhibitory concentration (MIC) in agar; type: cell-based; conditions: Candida albicans (Y)
Procedure: as §1, §2, §3, §4, §5, §6, §7, §8, §9

Citrobacter freundii = assay: Minimum inhibitory concentration (MIC) in agar; type: cell-based; conditions: Citrobacter freundii (B)
Procedure: as §1, §2, §3, §4, §5, §6, §7, §8, §9

Enterobacter aerogenes = assay: Minimum inhibitory concentration (MIC) in agar; type: cell-based; conditions: Enterobacter aerogenes (B)
Procedure: as §1, §2, §3, §4, §5, §6, §7, §8, §9

Escherichia coli = assay: Minimum inhibitory concentration (MIC) in agar; type: cell-based; conditions: Escherichia coli (B)
Procedure: as §1, §2, §3, §4, §5, §6, §7, §8, §9

Fusarium solani = assay: Minimum inhibitory concentration (MIC) in agar; type: cell-based; conditions: Fusarium solani (F)
Procedure: as §1, §2, §3, §4, §5, §6, §7, §8, §9

Klebsiella pneumoniae = assay: Minimum inhibitory concentration (MIC) in agar; type: cell-based; conditions: Klebsiella pneumoniae (B)
Procedure: as §1, §2, §3, §4, §5, §6, §7, §8, §9

Penicillium funicolosium = assay: Minimum inhibitory concentration (MIC) in agar; type: cell-based; conditions: Penicillium funicolosium (F)
Procedure: as §1, §2, §3, §4, §5, §6, §7, §8, §9

Penicillium minioluteum = assay: Minimum inhibitory concentration (MIC) in agar; type: cell-based; conditions: Penicillium minioluteum (F)
Procedure: as §1, §2, §3, §4, §5, §6, §7, §8, §9

Proteus vulgaris = assay: Minimum inhibitory concentration (MIC) in agar; type: cell-based; conditions: Proteus vulgaris (B)
Procedure: as §1, §2, §3, §4, §5, §6, §7, §8, §9

Pseudomonas aeruginosa = assay: Minimum inhibitory concentration (MIC) in agar; type: cell-based; conditions: Pseudomonas aeruginosa (B)
Procedure: as §1, §2, §3, §4, §5, §6, §7, §8, §9

Pseudomonas oleovorans = assay: Minimum inhibitory concentration (MIC) in agar; type: cell-based; conditions: Pseudomonas oleovorans (B)
Procedure: as §1, §2, §3, §4, §5, §6, §7, §8, §9

Staphylococcus aureus = assay: Minimum inhibitory concentration (MIC) in agar; type: cell-based; conditions: Staphylococcus aureus (B)
Procedure: as §1, §2, §3, §4, §5, §6, §7, §8, §9

[1] = system: bacteria, fungi and yeasts; assay: Antimicrobial efficacy, overall statements; type: cell-based
Procedure: Below, the antimicrobial efficacy of a composition according to the invention consisting of 50% by weight of isorbide caprylate 1 and 50% by weight of ethylhexylglycerin against bacteria, fungi and yeasts is examined (hereinbelow, the composition is referred to as “composition A”). For the tests with bacteria, composition A was diluted with butyl polyglycol and then, at 50° C., added to liquid CASO agar (casein-peptone agar) buffered to pH 7 (+/−0.2) in various concentrations (hereinbelow referred to as compositions B1, B2, etc.). For the tests with fungi and yeasts, composition A was diluted with butyl polyglycol and then added to liquid Sabouraud 4% dextrose agar buffered to pH 5.6 (+/−0.2) in various concentrations (hereinbelow referred to as compositions PH1, PH2, etc.). […]
as §2, §9

[2] = system: bacteria, fungi and yeasts; conditions: general statement, no test described, cited from earlier work
[3] = Sabouraud 4% dextrose agar pH 5.6 (+/-0.2), read-out: minimum inhibitory concentration (MIC), meas.
[4] = CASO agar pH 7 (+/-0.2), read-out: minimum inhibitory concentration (MIC), meas.
[5] = MIC mixture x factor 0.5 (composition A)
[6] = Sabouraud 4% dextrose agar pH 5.6 (+/-0.2)

MIC (Aspergillus brasiliensis; [3]): 10000 µg/mL
MIC (Aspergillus terreus; [3]): 10000 µg/mL
MIC (Candida albicans; [3]): 10000 µg/mL
MIC (Citrobacter freundii; [4]): 10000 µg/mL
MIC (Enterobacter aerogenes; Klebsiella aerogenes, CASO agar pH 7 (+/-0.2), read-out: minimum inhibitory concentration (MIC), meas.): 10000 µg/mL
MIC (Escherichia coli; [4]): 10000 µg/mL
MIC (Fusarium solani; [3]): 10000 µg/mL
MIC (Klebsiella pneumoniae; [4]): 10000 µg/mL
MIC (Penicillium funicolosium; [3]): 10000 µg/mL
MIC (Penicillium minioluteum; Talaromyces minioluteus, Sabouraud 4% dextrose agar pH 5.6 (+/-0.2), read-out: minimum inhibitory concentration (MIC), meas.): 10000 µg/mL
MIC (Proteus vulgaris; [4]): 10000 µg/mL
MIC (Pseudomonas aeruginosa; [4]): 10000 µg/mL
MIC (Pseudomonas oleovorans; Ectopseudomonas oleovorans, CASO agar pH 7 (+/-0.2), read-out: minimum inhibitory concentration (MIC), meas.): 10000 µg/mL
MIC (Staphylococcus aureus; [4]): 10000 µg/mL
Compound: O[C@@H]1CO[C@H]2[C@@H]1OC[C@@H]2O [isosorbide]
antimicrobial activity (in words) ([1]; summary of the results of Table 2): neither isosorbide nor isosorbide dicaprylate are antimicrobially active

Compound: isosorbide monocaprylate
antimicrobial activity (in words) ([1]; concluded from the MICs of isosorbide caprylate 1 and of its other constituents): significant antimicrobial activity

Compound: CCCCCCCC(=O)O [caprylic acid]
antimicrobial activity (in words) ([2]; at a pH of 6 or above): no antimicrobial activity
antimicrobial efficacy (in words) [2]: antimicrobially effective

minimum inhibitory concentration (MIC), meas. (Aspergillus brasiliensis; [6]): 1000 ppm
minimum inhibitory concentration (MIC), meas. (Aspergillus terreus; [6]): 1000 ppm
minimum inhibitory concentration (MIC), meas. (Candida albicans; [6]): 1000 ppm
minimum inhibitory concentration (MIC), meas. (Citrobacter freundii; CASO agar pH 7 (+/-0.2)): 1500 ppm
minimum inhibitory concentration (MIC), meas. (Enterobacter aerogenes; CASO agar pH 7 (+/-0.2)): 2000 ppm
minimum inhibitory concentration (MIC), meas. (Escherichia coli; CASO agar pH 7 (+/-0.2)): 1000 ppm
minimum inhibitory concentration (MIC), meas. (Fusarium solani; [6]): 500 ppm
minimum inhibitory concentration (MIC), meas. (Klebsiella pneumoniae; CASO agar pH 7 (+/-0.2)): 2000 ppm
minimum inhibitory concentration (MIC), meas. (Penicillium funicolosium; [6]): 500 ppm
minimum inhibitory concentration (MIC), meas. (Penicillium minioluteum; [6]): 750 ppm
minimum inhibitory concentration (MIC), meas. (Proteus vulgaris; CASO agar pH 7 (+/-0.2)): 1500 ppm
minimum inhibitory concentration (MIC), meas. (Pseudomonas aeruginosa; CASO agar pH 7 (+/-0.2)): 5000 ppm
minimum inhibitory concentration (MIC), meas. (Pseudomonas oleovorans; CASO agar pH 7 (+/-0.2)): 5000 ppm
minimum inhibitory concentration (MIC), meas. (Staphylococcus aureus; CASO agar pH 7 (+/-0.2)): 750 ppm
Compound: CCCCC(CC)COCC(O)CO (stereo not shown) [ethylhexylglycerin]
minimum inhibitory concentration of the component in the mixture employed (Qa / Qb), calc. (Aspergillus brasiliensis; [5]): 375 ppm
minimum inhibitory concentration of the component in the mixture employed (Qa / Qb), calc. (Aspergillus terreus; [5]): 250 ppm
minimum inhibitory concentration of the component in the mixture employed (Qa / Qb), calc. (Candida albicans; [5]): 375 ppm
minimum inhibitory concentration of the component in the mixture employed (Qa / Qb), calc. (Citrobacter freundii; [5]): 750 ppm
minimum inhibitory concentration of the component in the mixture employed (Qa / Qb), calc. (Enterobacter aerogenes; [5]): 2500 ppm
minimum inhibitory concentration of the component in the mixture employed (Qa / Qb), calc. (Escherichia coli; [5]): 750 ppm
minimum inhibitory concentration of the component in the mixture employed (Qa / Qb), calc. (Fusarium solani; [5]): 125 ppm
minimum inhibitory concentration of the component in the mixture employed (Qa / Qb), calc. (Klebsiella pneumoniae; [5]): 1000 ppm
minimum inhibitory concentration of the component in the mixture employed (Qa / Qb), calc. (Penicillium funicolosium; [5]): 125 ppm
minimum inhibitory concentration of the component in the mixture employed (Qa / Qb), calc. (Penicillium minioluteum; [5]): 250 ppm
minimum inhibitory concentration of the component in the mixture employed (Qa / Qb), calc. (Proteus vulgaris; [5]): 750 ppm
minimum inhibitory concentration of the component in the mixture employed (Qa / Qb), calc. (Pseudomonas aeruginosa; [5]): 2500 ppm
minimum inhibitory concentration of the component in the mixture employed (Qa / Qb), calc. (Pseudomonas oleovorans; [5]): 5000 ppm
minimum inhibitory concentration of the component in the mixture employed (Qa / Qb), calc. (Staphylococcus aureus; [5]): 500 ppm
